Source: patent publication US4604237A, “Des-21-threonine-calcitonin” (Armour Pharmaceutical Company, priority 1984, dated 1986)

Key:
[1] = test system: serum calcium concentration; test: Biological assay of calcitonin analogs in vivo: reduction of serum calcium, 2×2 parallel line assay against synthetic salmon calcitonin standard; set-up: species or system Rats; details: independently determined content of the standard
Procedure: The biological potency of des-21-threonine-salmon calcitonin was determined by comparing the reduction of serum calcium concentration which followed administration by graded doses of des-Thr^21 -SCT and synthetic salmon calcitonin standard. Rats were divided into four groups of seven animals, and each group was assigned at random to a dose of standard or test solution. Low and high doses were chosen from the linear portion of the dose-response curve. For the salmon calcitonin standard, the values were 0.7 and 2.1 ng. peptide/100 g. body weight (BW). This dose approximates 3 and 9 MU/100 g. BW. Peptides were given by subcutaneous injection (0.2 ml/100 g. BW) and blood was withdrawn 1 hour later for serum calcium determination. Sera are processed and analyzed within two hours of collection. […]. Results were analyzed by a 2×2 parallel line assay [Gaddum, J. H., J. Pharm. Pharmacol., 6, 345 (1953)]. The standard salmon calcitonin used was independently determined to contain greater than 4,000 IU/mg. des-Thr^21 -SCT assayed at 5355 IU/mg.

[2] = literature values; cited from earlier work

Compound | potency of the standard salmon calcitonin used [1] | hypocalcemic potency [2]
CC(C)C[C@H](NC(=O)[C@H](CCCCN)NC(=O)CNC(=O)[C@H](CC(C)C)NC(=O)[C@@H](NC(=O)[C@@H]1CSSC[C@H](N)C(=O)N[C@@H](CO)C(=O)N[C@@H](CC(N)=O)C(=O)N[C@@H](CC(C)C)C(=O)N[C@@H](CO)C(=O)N[C@@H]([C@@H](C)O)C(=O)N1)C(C)C)C(=O)N[C@@H](CO)C(=O)N[C@@H](CCC(N)=O)C(=O)N[C@@H](CCC(=O)O)C(=O)N[C@@H](CC(C)C)C(=O)N[C@@H](Cc1c[nH]cn1)C(=O)N[C@@H](CCCCN)C(=O)N[C@@H](CC(C)C)C(=O)N[C@@H](CCC(N)=O)C(=O)N[C@H](C(=O)N[C@@H](Cc1ccc(O)cc1)C(=O)N1CCC[C@H]1C(=O)N[C@@H](CCCNC(=N)N)C(=O)N[C@H](C(=O)N[C@@H](CC(N)=O)C(=O)N[C@H](C(=O)NCC(=O)N[C@@H](CO)C(=O)NCC(=O)N[C@H](C(=O)N1CCC[C@H]1C(N)=O)[C@@H](C)O)[C@@H](C)O)[C@@H](C)O)[C@@H](C)O [standard salmon calcitonin, Salmon calcitonin] | greater than 4,000 IU/mg | –
(1,7-α-L-aminosuberic acid)eel calcitonin | – | about 3400 IU/mg.
eel calcitonin [synthetic eel calcitonin] | – | around 4300 IU/mg.
